Measured values as given in US20110195432A1, “METHODS FOR THE SELECTION OF THERAPEUTIC TREATMENTS FOR CANCER” (priority 2008, published 2011).
Entries after “also recorded” stand apart in the source; their conditions may differ.

Tests used:
recombinant HDAC6 = biological target: T1, recombinant HDAC6 (Homo sapiens, UniProt Q9UBN7); conditions: cell-free; 7.5 or 15 μM sulforaphane, or 400 nM TSA; versus vehicle-treated HDAC6 control
T1 sequence (Q9UBN7 1-1215): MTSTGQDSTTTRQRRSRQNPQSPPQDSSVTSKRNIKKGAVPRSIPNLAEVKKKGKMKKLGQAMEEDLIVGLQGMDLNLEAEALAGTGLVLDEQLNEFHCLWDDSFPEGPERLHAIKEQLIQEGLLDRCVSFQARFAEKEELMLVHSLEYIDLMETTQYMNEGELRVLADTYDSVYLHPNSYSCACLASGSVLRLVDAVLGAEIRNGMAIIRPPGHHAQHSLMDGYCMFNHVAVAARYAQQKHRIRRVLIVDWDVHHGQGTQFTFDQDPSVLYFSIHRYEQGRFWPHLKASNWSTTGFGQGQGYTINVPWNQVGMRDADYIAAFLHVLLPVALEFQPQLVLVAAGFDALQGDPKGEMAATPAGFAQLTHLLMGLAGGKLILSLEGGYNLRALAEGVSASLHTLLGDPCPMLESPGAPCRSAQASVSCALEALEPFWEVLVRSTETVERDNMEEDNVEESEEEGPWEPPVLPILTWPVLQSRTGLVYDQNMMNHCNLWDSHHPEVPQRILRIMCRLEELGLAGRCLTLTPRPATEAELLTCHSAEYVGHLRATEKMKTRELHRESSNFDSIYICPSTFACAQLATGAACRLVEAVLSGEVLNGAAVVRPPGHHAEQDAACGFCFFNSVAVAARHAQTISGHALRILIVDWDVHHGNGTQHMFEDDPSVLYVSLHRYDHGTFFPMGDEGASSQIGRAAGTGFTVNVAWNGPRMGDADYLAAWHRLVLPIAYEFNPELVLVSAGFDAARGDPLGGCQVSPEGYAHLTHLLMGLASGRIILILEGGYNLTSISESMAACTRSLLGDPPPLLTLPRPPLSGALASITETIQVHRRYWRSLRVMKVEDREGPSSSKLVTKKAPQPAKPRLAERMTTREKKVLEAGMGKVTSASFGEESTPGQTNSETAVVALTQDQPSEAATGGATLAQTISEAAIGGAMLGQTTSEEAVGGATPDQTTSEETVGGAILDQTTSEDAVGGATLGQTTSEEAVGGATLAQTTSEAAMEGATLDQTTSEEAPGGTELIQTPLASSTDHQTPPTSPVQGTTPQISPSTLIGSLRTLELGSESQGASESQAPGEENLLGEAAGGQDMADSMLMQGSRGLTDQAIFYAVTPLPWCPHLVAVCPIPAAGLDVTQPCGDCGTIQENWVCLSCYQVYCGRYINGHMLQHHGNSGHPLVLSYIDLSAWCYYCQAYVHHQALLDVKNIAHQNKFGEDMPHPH

AR [1] = assay: Western blot of AR protein levels, LNCaP cells; assay type: cell-based
Experimental: (§1) Immunoprecipitation and immunoblotting were performed as described (Qian et al., Clin. Cancer Res. 12:634-42, 2006). The following antibodies used in immunoblotting or immunoprecipitations (indicated dilutions are for immunoblotting): AR (1:1000, #06-680 Upstate, Billerica, Mass.); acetylated lysine (#05-515 Upstate, Billerica, Mass.); acetylated tubulin (1:2000, #T6793 Sigma, St. Louis, Mo.); alpha-tubulin (1:10,000, #T6074 Sigma, St. Louis, Mo.); beta-actin (1:5000, #A5441 Sigma, St. Louis, Mo.); ERG-1/2/3, (1:5000, #sc-354X Santa Cruz, Santa Cruz, Calif.); FLAG epitope (#F7425 Sigma, St. Louis, Mo.); GAPDH (1:5000, #sc-32233 Santa Cruz, Santa Cruz, Calif.); HDAC6 (1:1000, #sc-11420 Santa Cruz); HSP90 (1:1000, #SPA-840 Stressgen, Ann Arbor, Mich.); mouse IgG (#sc-2025 Santa Cruz, Santa Cruz, Calif.). The following secondary antibodies were used: ECL-conjugated anti-mouse IgG, (1:5000, #A6782 Sigma, St. Louis, Mo.); ECL-conjugated anti-rabbit IgG (1:3000, #NA934 Amersham, Piscataway, N.J. or 1:10,000, #sc-2004 Santa Cruz, Santa Cruz, Calif.). X-ray exposures were scanned as uncompressed images and bands were quantified by densitometry with Quantity One software (Bio-Rad, Hercules, Calif.). Intensity values were normalized to those of the endogenous controls. The vehicle sample was set to 1. Enrichment was calculated as: (intensity IP/intensity input)/(intensity IgG/intensity input) or intensity IP/input (FIG. 1B).
LNCaP cells were treated with sulforaphane in a dose-response (5 μM to 20 μM) and time-course (12 and 24 hours) manner to investigate the effect of HDAC6 inhibition on AR protein levels. Western blotting was performed as described in Example 1. […]

AR [2] = assay: Western blot of AR protein levels, VCaP cells; assay type: cell-based; conditions: 24 hours
PSA = assay: Real-time PCR of AR target gene expression, LNCaP cells; assay type: cell-based; conditions: increasing doses, vehicle set to 1
From the text: (§2) All samples were run in triplicate. The vehicle-treated sample was set to 1.

AR [3] = assay: Real-time PCR of AR gene expression, VCaP cells; assay type: cell-based
From the text: as §2

ERG = conditions: VCaP cells; 20 μM sulforaphane, 24 hours; treated in parallel with ChIP
Experimental: as §1, with “The vehicle sample was set to 1.” left out

C[S+]([O-])CCCCN=C=S (stereo not shown) [sulforaphane, 1-Isothiocyanato-4-methylsulfinylbutane] was tested, and the “HDAC6 deacetylase activity on tubulin” value (recombinant HDAC6) was “decreased HDAC6 deacetylase activity; also recorded: inhibited HDAC6 deacetylase activity”, the “AR steady state level with simultaneous MG132 treatment” value (AR [1]; 24 hours, sulforaphane 20 μM or 300 nM TSA with 10 μM MG132) was “restored the AR steady state level close to that seen in the vehicle-treated control” and the “AR protein in the absence of MG132” value (AR [1]; 24 hours, sulforaphane 20 μM or 300 nM TSA, versus vehicle-treated cells) was “dramatic reductions”. For the same compound, the “AR protein levels at 24 hours” value (AR [1]; sulforaphane 15 μM and 20 μM, TSA) was “persisted”, the “levels of AR protein in whole cell lysates” value (AR [2]; 20 μM sulforaphane, treated in parallel with ChIP) was “near absent levels” and the AR protein levels (AR [2]; all sulforaphane dose levels) was “declined”. For the same compound, the “AR target gene expression (PSA)” value (PSA) was “dose-dependent reduction”, the “AR transcript levels at highest doses” value (AR [3]; 15-20 μM) was “declined” and the AR transcripts (AR [3]; 24 hours, increasing doses of sulforaphane, or TSA, vehicle set to 1) was “not consistently suppressed”. For the same compound, the “levels of ERG protein in whole cell lysates” value (ERG) was “near absent levels”.
